Measurements reported in patent publication US20030203864A1, “Treatment of cancer” (priority 2002, published 2003).
Strand notation (5' to 3'): a small letter for the sugar, then the base; units joined by * are phosphorothioate-linked, units joined directly phosphodiester-linked; [ ] holds rarer units or linkages, { } end groups; capitals alone tell only the bases. [invdT] = inverted (3'-3') thymidine; d = 2'-deoxy (DNA)

Legend:
[1] = system: bovine aortic endothelial cells; experiment: In vitro injury (scrape) endothelial regrowth; type: cell-based; conditions: for endothelial regrowth stimulated by insulin after injury: 0.8 μM oligonucleotide
Protocol: In vitro injury. Growth-arrested cells at 90% confluence were incubated with antisense oligonucleotides and insulin at various concentrations as described above, then were scraped by drawing a sterile wooden toothpick across the monolayer (Khachigian et al., 1996). Following 48-72 h, the cells were fixed in 4% formalin, stained with hemotoxylin/eosin then photographed.

Egr-1 protein = experiment: Western blot of Egr-1 protein in endothelial cells; type: cell-based, bovine; conditions: for insulin-inducible Egr-1 protein synthesis: 0.8 μM oligonucleotide
Protocol: Antisense oligonucleotide delivery and Western blot analysis. Growth arrested cells in 100 mm dishes were incubated with the indicated oligonucleotides 24 h and 48 h after the initial change of medium. When oligonucleotide was added a second time, the cells were incubated with various concentrations of insulin and harvest 1 h subsequently. […] Lysates were resolved by electrophoresis on 8% denaturing SDS-polyacrylamide gels, transferred to PDVF nylon membranes (NEN-DuPont), blocked with skim milk powder, then incubated with polyclonal antibodies to Egr-1 (Santa Cruz Biotechnology, Inc) and monoclonal horseradish peroxidase-linked mouse anti-rabbit Ig secondary antibodies followed by chemiluminescent detection (NEN-DuPont).

[2] = system: bovine aortic endothelial cells; experiment: 3H-thymidine incorporation into DNA, aortic endothelial cells; type: cell-based; conditions: for basal endothelial DNA synthesis: no added insulin, 0.25% serum; for insulin-inducible DNA synthesis: inhibitor added 2 h before insulin 500 nM, PD98059 10 and 30 μM, wortmannin 0.3 and 1 μM, SB202190 100 and 500 nM
Protocol: ^3H-Thymidine incorporation into DNA. Growth-arrested endothelial cells at 90% confluence in 96 well plates were incubated twice with the oligonucleotides prior to the addition of insulin. […] After 18 h of exposure to insulin, the cells were pulsed with 200,000 cpm/well of methyl-3H thymidine (NEN-DuPont) for 6 h.

Egr-1 [3] = experiment: Transient transfection CAT reporter assay (pEBS1^3foscat), Egr-1-dependent gene expression; type: cell-based, bovine; conditions: growth-arrested endothelial cells, 24 h; glucose 5 to 30 mM, insulin 100 nM, FGF-2 25 ng/ml
Protocol: Transient transfection analysis and, CAT assay. The endothelial cells were grown to 60-70% confluence in 100 mm. dishes and transiently transfected with 10 μg of the indicated chloramphenicol acetyl transferase (CAT)-based promoter reporter construct using FuGENE6 (Roche). The cells were rendered growth-quiescent by incubation 48 h in 0.25% FBS, and stimulated with various agonists for 24 h prior to harvest and assessment of CAT activity. CAT activity was measured and normalized to the concentration of protein in the lysates (determined by Biorad Protein Assay) as previously described (Khachigian, L. M. and Chesterman, C. N. (1999), Circ. Res., 84:1258-1267).

NGFI-A protein = experiment: Western blot of NGFI-A protein in SMCs; type: cell-based, rat; conditions: 5% FBS 1 h
Protocol: (§1) Culture conditions and DNAzyme transfection. Primary rat aortic SMCs were obtained from Cell Applications, Inc., and grown in Waymouth's medium, pH 7.4, containing 10% fetal bovine serum (FBS), 50 μg/ml streptomycin and 50 IU/ml penicillin at 37° C. in a humidified atmosphere of 5% CO2 SMCs were used in experiments between passages 3-7. Pup rat SMCs (WKY12-22 (as described in Lernire et al, 1994, the entire contents of which are incorporated herein by reference)) were grown under similar conditions. Subconfluent (60-70%) SMCs were incubated in serum-free medium (SFM) for 6 h prior to DNAzyme (or antisense ODN, where indicated) transfection (0.1 μM) using Superfect in accordance with manufacturer's instructions (Qiagen). After 18 h, the cells were washed with phosphate-buffered saline (PBS), pH 7.4 prior to transfection a second time in 5% FBS.
Western blot analysis. Growth-quiescent SMCs in 100 mm plates (Nunc-InterMed) were transfected with ED5 or ED5SCR as above, and incubated with 5% FBS for 1 h. The cells were washed in cold PBS, pH 7.4, and extracted in 150 mM NaCl, 50 mM Tris-HCI, pH 7.5, […], 0.1% SDS, 1% Triton X-100, 5 mM EDTA, 1% trasylol, 10μ/ml leupeptin, 1% aprotinin and 2 mM PMSF. Twenty four μg protein samples were loaded onto 10% denaturing SDS-polyacrylamide gels and electroblotted onto PVDF nylon membranes (NEN-DuPont). […]

Egr-1 mRNA = experiment: RT-PCR and Northern blot of Egr-1 mRNA in endothelial cells; type: cell-based, bovine; conditions: growth-quiescent endothelial cells, within 1 h of agonist
Protocol: Northern blot analysis. Total RNA (12 μg/well) of growth-arrested endothelial cells (prepared using TRIzol Reagent (Life Technologies) in accordance with the manufacturer's instructions) previously exposed to various agonists for 1 h was resolved by electrophoresis on denaturing 1% agarose-formialdehyde gels. Following transfer overnight to Hybond-N+ nylon membranes (Amersham), the blots were hybridized with ^32P-labeled Egr-1 cDNA prepared using the Nick Translation Kit overnight (Roche). The membranes were washed and radioactivity visualized by autoradiography as previously described (Khachigian et al., 1995).
RT-PCR. Reverse transcription was performed with 8 μg of total RNA using M-MLV reverse transcriptase. Egr-1 cDNA was amplified (334 bp product (Delbridge, G. J. and Khachigian, L. M. (1997), Circ. Res., 81:282-288)) using Taq polymerase by heating for 1 min at 94° C., and cycling through 94° C. for 1 min, 94° C. for 1 min, 55° C. for 1 min, and 72° C. for 1 min. Following thirty cycles, a 5 min extension at 72° C. was carried out. Samples were electrophoresed on 1.5% agarose gel containing ethidium bromide and photographed under ultraviolet illumination. β-actin amplification (690 bp product) was performed essentially as above. The sequences of the primers were: Egr-1 forward primer (5′-GCA CCC AAC AGT GGC AAC-3′) (SEQ ID NO:18), Egr-1 reverse primer (5′-GGG ATC ATG GGA ACC TGG-3′) (SEQ ID NO: 19), β-actin forward primer (5′-TGACGGGGTCACCCACACTGTGCCCATCTA 3′) (SEQ ID NO:20), and β-actin reverse primer (5′-CTAGAAGCATTTGCGGTGGACGATGGAGGG-3′) (SEQ ID NO:21).

Primary rat aortic SMCs = experiment: SMC proliferation assay (Coulter counter); type: cell-based
Protocol: as §1, with “Subconfluent (60-70%) SMCs were incubated in serum-free medium (SFM) for 6 h prior to DNAzyme (or antisense ODN, where indicated) transfection (0.1 μM) using Superfect in accordance with manufacturer's instructions (Qiagen).” left out
Assays of cell proliferation. Growth-quiescent SMCs in 96-well titer plates (Nunc-InterMed) were transfected with ED5 or ED5SCR as above, then exposed to 5% FBS at 37° C. for 72 h. The cells were rinsed with PBS, pH 7.4, trypsinized and the suspension was quantitated using an automated Coulter counter.

EGR-1 [4] = experiment: Western blot of EGR-1 in HepG2 cells; type: cell-based, human
EGR-1, sequence (P18146 whole entry): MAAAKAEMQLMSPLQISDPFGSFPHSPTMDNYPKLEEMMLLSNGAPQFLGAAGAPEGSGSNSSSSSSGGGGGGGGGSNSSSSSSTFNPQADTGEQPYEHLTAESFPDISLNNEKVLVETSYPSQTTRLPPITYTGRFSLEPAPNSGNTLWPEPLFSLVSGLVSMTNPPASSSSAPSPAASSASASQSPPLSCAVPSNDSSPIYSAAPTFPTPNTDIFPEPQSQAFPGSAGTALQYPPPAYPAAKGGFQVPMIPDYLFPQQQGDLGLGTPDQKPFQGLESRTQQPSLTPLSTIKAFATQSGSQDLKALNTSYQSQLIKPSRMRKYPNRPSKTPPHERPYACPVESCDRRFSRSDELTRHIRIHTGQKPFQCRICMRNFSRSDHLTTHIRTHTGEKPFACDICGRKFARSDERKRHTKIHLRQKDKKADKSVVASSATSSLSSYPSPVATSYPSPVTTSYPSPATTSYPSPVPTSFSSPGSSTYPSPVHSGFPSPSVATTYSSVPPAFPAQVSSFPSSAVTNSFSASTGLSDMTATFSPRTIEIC

“AS2C: size-matched phosphorothioate-linked counterpart of AS2 with similar base composition, 5′-GsCsAsCsTsTsCsTsGsCsTsGsTsCsC-3′ (DNA dG*dC*dA*dC*dT*dT*dC*dT*dG*dC*dT*dG*dT*dC*dC) [reference compound]” was tested, and the “endothelial regrowth stimulated by insulin after injury” value [1] was “not significantly different”, the “insulin-inducible Egr-1 protein synthesis” value (Egr-1 protein) was “lack of attenuation” and the “basal endothelial DNA synthesis” value ([2]; 0.8 μM oligonucleotide) was “little effect”.
For O=C[C@H](O)[C@@H](O)[C@H](O)[C@H](O)CO [glucose], the “Egr-1 binding activity (CAT reporter activity)” value (“Egr-1 binding activity” for short) (Egr-1 [3]) was “did not increase”.
With “EDC: DNAzyme with identical catalytic domain flanked by nonsense arms, 5′-CGCCATTAGGCTAGCTACAACGACCTAGTGAT-3′; 3′T inverted (DNA CGCCATTAGGCTAGCTACAACGACCTAGTGA; DNA, [invdT] at 3' end, backbone not given here)” the “serum-induction of NGFI-A protein” value (NGFI-A protein) was “neither ED5SCR nor EDC, a DNAzyme bearing an identical catalytic domain as ED5 and ED5SCR but flanked by nonsense arms had any influence”.
For Oc1ccc(-c2nc(-c3ccncc3)c(-c3ccc(F)cc3)[nH]2)cc1 [SB202190, reference compound], the “insulin-inducible DNA synthesis” value [2] was “failed to affect DNA synthesis”.
In the case of CCCCCCCCCCCCCC(=O)O[C@@H]1[C@@H](C)[C@@]2(O)[C@@H](C=C(CO)C[C@]3(O)C(=O)C(C)=C[C@@H]23)[C@@H]2C(C)(C)[C@]12OC(C)=O [PMA, Phorbol-12-myristrate 13-acetate, reference compound], the “Egr-1 mRNA levels” value (Egr-1 mRNA) is reported as “elevated steady-state Egr-1 mRNA levels”.
With insulin the “Egr-1 binding activity” value (Egr-1 [3]) was “did increase”, the “population of cells in the denuded zone after injury” value ([1]; insulin 500 nM at time of injury, 3 days) was “significantly increased” and the “Egr-1 mRNA levels” value (Egr-1 mRNA) was “elevated steady-state Egr-1 mRNA levels”. For the same molecule, the Egr-1 protein synthesis (Egr-1 protein; insulin 100 nM and 500 nM, within 1 h) was “induced Egr-1 protein synthesis”, the “increase in DNA synthesis” value ([2]; insulin 100 nM) was 100% and the “increase in DNA synthesis” value ([2]; insulin 500 nM) was 200%.
In the case of “AS2: Phosphorothioate-linked antisense oligonucleotide to translational start site of Egr-1 mRNA, 5′-CsTsTsGsGsCsCsGsCsTsGsCsCsAsT-3′ (DNA dC*dT*dT*dG*dG*dC*dC*dG*dC*dT*dG*dC*dC*dA*dT)”, the “endothelial regrowth stimulated by insulin after injury” value [1] is reported as “significantly inhibited”, the “inhibition of SMC proliferation stimulated by serum” value (Primary rat aortic SMCs; 0.1 μM, 5% FBS, 3 days) is reported as “failed to inhibit proliferation” and the SMC growth (Primary rat aortic SMCs; 1 μM) is reported as “able to inhibit SMC growth”. For the same molecule, the “insulin-inducible Egr-1 protein synthesis” value (Egr-1 protein) was “inhibited”, the “insulin-inducible 3H-thymidine incorporation” value ([2]; 0.4 μM oligonucleotide (vs 0.8 μM), insulin 500 nM) was “less effectively” and the “DNA synthesis inducible by insulin” value ([2]; 0.8 μM oligonucleotide, insulin 500 nM and 1000 nM) was “significantly inhibited”. For the same molecule, the “basal endothelial DNA synthesis” value ([2]; 0.8 μM oligonucleotide) was “inhibited”.
For “SEQ ID NO:24: size matched DNAzyme with different sequence, 5′-tcagctgcaGGCTAGCTACAACGActcggcctt (DNA TCAGCTGCAGGCTAGCTACAACGACTCGGCCT; DNA, [invdT] at 3' end, backbone not given here) [reference compound]”, the “EGR-1 expression in HepG2 cells” value (EGR-1 [4]) was “no effect”.
With COc1cccc(-c2cc(=O)c3ccccc3o2)c1N [PD98059, reference compound] the “insulin-inducible DNA synthesis” value [2] was “inhibited insulin-inducible DNA synthesis in a dose-dependent manner”.
For fibroblast growth factor-2 [FGF-2], the “Egr-1 binding activity” value (Egr-1 [3]) was “increased” and the “Egr-1 mRNA levels” value (Egr-1 mRNA) was “elevated steady-state Egr-1 mRNA levels”.
